Results as given in ChEMBL document CHEMBL1142346, “Quantitative structural-activity relationship (QSAR) study for fungicidal activities of thiazoline derivatives against rice blast” (2008).

tested on: Pyricularia grisea; experiment: Antifungal activity against Magnaporthe grisea infected rice plant after 5 days relative to control; format: functional; set-up: concentration or dose not given beside the values

Row | SMILES | Activity [%]
1 | CN(C(=O)Cc1cs/c(=N\c2cccc(F)c2)n1C)c1ccccc1 | 0
2 | CN(C(=O)Cc1cs/c(=N\c2cc(Cl)cc(Cl)c2)n1C)c1ccccc1 | 8
3 | CCc1ccc(NC(=O)Cc2cs/c(=N\c3ccc(C#N)cc3)n2C)cc1 | 93
4 | COc1ccc(NC(=O)Cc2cs/c(=N\c3ccc([N+](=O)[O-])cc3)n2C)cc1 | 99
5 | CN(C(=O)Cc1cs/c(=N\c2ccc(C#N)cc2)n1C)c1ccccc1 | 25
6 | CCc1ccc(NC(=O)Cc2cs/c(=N\c3ccc(OC)cc3)n2C)cc1 | 98
7 | CN(C(=O)Cc1cs/c(=N\c2ccc(Br)cc2)n1C)c1ccccc1 | 0
8 | COc1ccc(/N=c2\scc(CC(=O)Nc3ccc(Cl)cc3)n2CCO)cc1 | 10
9 | Cn1c(CC(=O)Nc2ccc(Br)cc2)cs/c1=N\c1ccc(Oc2ccccc2)cc1 | 98
10 | CN(C(=O)Cc1cs/c(=N\c2ccc(C(F)(F)F)cc2)n1C)c1ccccc1 | 0
11 | CCc1ccc(NC(=O)Cc2cs/c(=N\c3ccc(OC)cc3)n2CCO)cc1 | 75
12 | CN(C(=O)Cc1cs/c(=N\c2ccc(Oc3ccccc3)cc2)n1C)c1ccccc1 | 0
13 | COc1ccc(/N=c2\scc(CC(=O)Nc3ccc(Cl)cc3)n2C)cc1 | 83
14 | O=C(Cc1cs/c(=N\c2ccc(Oc3ccccc3)cc2)n1C1CC1)Nc1ccc(Br)cc1 | 16
15 | COc1ccc(NC(=O)Cc2cs/c(=N\c3ccc([N+](=O)[O-])cc3)n2CCO)cc1 | 20
16 | CN(C(=O)Cc1cs/c(=N\c2ccc(F)cc2F)n1C)c1ccccc1 | 0
17 | CCc1ccc(NC(=O)Cc2cs/c(=N\c3ccc(C#N)cc3)n2CCO)cc1 | 86
18 | CN(C(=O)Cc1cs/c(=N\c2ccc(F)cc2)n1C)c1ccccc1 | 0

tested on: Pyricularia grisea; experiment: Antifungal activity against Magnaporthe grisea infected rice plant assessed as logarithm of fungal control value at 100 ppm after 5 days; format: functional

Row | SMILES | Activity
19 | CCc1ccc(NC(=O)Cc2cs/c(=N\c3ccc(OC)cc3)n2C)cc1 | 1.99
